Data: ChEMBL document CHEMBL4619706, “Synthesis, biological evaluation and molecular modeling study of [1,2,4]-Triazolo[4,3-c]quinazolines: New class of EGFR-TK inhibitors” (Bioorg Med Chem, 2020)

Tests used:
HepG2 = test: Anticancer activity against human HepG2 cells assessed as inhibition of cell growth incubated for 24 hrs by MTT assay; assay type: functional, cell-based; details: HepG2, 24 h
MCF7 [1] = test: Anticancer activity against human MCF7 cells assessed as inhibition of cell growth incubated for 24 hrs by MTT assay; assay type: functional, cell-based; details: MCF7, 24 h
PC-3 = test: Anticancer activity against human PC3 cells assessed as inhibition of cell growth incubated for 24 hrs by MTT assay; assay type: functional, cell-based; details: PC-3, 24 h
HCT-116 = test: Anticancer activity against human HCT116 cells assessed as inhibition of cell growth incubated for 24 hrs by MTT assay; assay type: functional, cell-based; details: HCT-116, 24 h
HeLa = test: Anticancer activity against human HeLa cells assessed as inhibition of cell growth incubated for 24 hrs by MTT assay; assay type: functional, cell-based
[2] = target: Epidermal growth factor receptor (Homo sapiens, UniProt P00533); test: Inhibition of human EGFR-TK using PTK substrate after 40 mins in presence of ATP by Kinase-Glo luminescent assay
MCF7 [3] = test: Induction of apoptosis in human MCF7 cells assessed as viable cells after 24 hrs by Annexin V-FITC/propidium iodide double staining based FACSCalibur flow cytometry analysis (reference value: 97.89 %); assay type: functional
MCF7 [4] = test: Induction of apoptosis in human MCF7 cells assessed as early apoptotic cells after 24 hrs by Annexin V-FITC/propidium iodide double staining based FACSCalibur flow cytometry analysis (reference value: 1.22 %); assay type: functional
MCF7 [5] = test: Induction of apoptosis in human MCF7 cells assessed as late apoptotic cells after 24 hrs by Annexin V-FITC/propidium iodide double staining based FACSCalibur flow cytometry analysis (reference value: 0.43 %); assay type: functional
MCF7 [6] = test: Induction of apoptosis in human MCF7 cells assessed as necrotic cells after 24 hrs by Annexin V-FITC/propidium iodide double staining based FACSCalibur flow cytometry analysis (reference value: 0.46 %); assay type: functional
MCF7 [7] = test: Induction of apoptosis in human MCF7 cells assessed as cumulative apoptosis after 24 hrs by Annexin V-FITC/propidium iodide double staining based FACSCalibur flow cytometry analysis (reference value: 2.11 %); assay type: functional
MCF7 [8] = test: Cell cycle arrest in human MCF7 cells assessed as accumulation of cells at G0/G1 phase at IC50 after 24 hrs by propidium iodide/RNase staining based FACSCalibur flow cytometry analysis (reference value: 57.28 %); assay type: functional
MCF7 [9] = test: Cell cycle arrest in human MCF7 cells assessed as accumulation of cells at S phase at IC50 after 24 hrs by propidium iodide/RNase staining based FACSCalibur flow cytometry analysis (reference value: 26.49 %); assay type: functional
MCF7 [10] = test: Cell cycle arrest in human MCF7 cells assessed as accumulation of cells at G2/M phase at IC50 after 24 hrs by propidium iodide/RNase staining based FACSCalibur flow cytometry analysis (reference value: 16.23 %); assay type: functional
MCF7 [11] = test: Cell cycle arrest in human MCF7 cells assessed as accumulation of cells at pre-G1 phase at IC50 after 24 hrs by propidium iodide/RNase staining based FACSCalibur flow cytometry analysis (reference value: 2.11 %); assay type: functional
MCF7 [12] = test: Induction of apoptosis in human MCF7 cells assessed after 24 hrs by Annexin V-FITC/propidium iodide double staining based FACSCalibur flow cytometry analysis; assay type: functional, cell-based

Epidermal growth factor receptor, sequence (P00533 whole entry): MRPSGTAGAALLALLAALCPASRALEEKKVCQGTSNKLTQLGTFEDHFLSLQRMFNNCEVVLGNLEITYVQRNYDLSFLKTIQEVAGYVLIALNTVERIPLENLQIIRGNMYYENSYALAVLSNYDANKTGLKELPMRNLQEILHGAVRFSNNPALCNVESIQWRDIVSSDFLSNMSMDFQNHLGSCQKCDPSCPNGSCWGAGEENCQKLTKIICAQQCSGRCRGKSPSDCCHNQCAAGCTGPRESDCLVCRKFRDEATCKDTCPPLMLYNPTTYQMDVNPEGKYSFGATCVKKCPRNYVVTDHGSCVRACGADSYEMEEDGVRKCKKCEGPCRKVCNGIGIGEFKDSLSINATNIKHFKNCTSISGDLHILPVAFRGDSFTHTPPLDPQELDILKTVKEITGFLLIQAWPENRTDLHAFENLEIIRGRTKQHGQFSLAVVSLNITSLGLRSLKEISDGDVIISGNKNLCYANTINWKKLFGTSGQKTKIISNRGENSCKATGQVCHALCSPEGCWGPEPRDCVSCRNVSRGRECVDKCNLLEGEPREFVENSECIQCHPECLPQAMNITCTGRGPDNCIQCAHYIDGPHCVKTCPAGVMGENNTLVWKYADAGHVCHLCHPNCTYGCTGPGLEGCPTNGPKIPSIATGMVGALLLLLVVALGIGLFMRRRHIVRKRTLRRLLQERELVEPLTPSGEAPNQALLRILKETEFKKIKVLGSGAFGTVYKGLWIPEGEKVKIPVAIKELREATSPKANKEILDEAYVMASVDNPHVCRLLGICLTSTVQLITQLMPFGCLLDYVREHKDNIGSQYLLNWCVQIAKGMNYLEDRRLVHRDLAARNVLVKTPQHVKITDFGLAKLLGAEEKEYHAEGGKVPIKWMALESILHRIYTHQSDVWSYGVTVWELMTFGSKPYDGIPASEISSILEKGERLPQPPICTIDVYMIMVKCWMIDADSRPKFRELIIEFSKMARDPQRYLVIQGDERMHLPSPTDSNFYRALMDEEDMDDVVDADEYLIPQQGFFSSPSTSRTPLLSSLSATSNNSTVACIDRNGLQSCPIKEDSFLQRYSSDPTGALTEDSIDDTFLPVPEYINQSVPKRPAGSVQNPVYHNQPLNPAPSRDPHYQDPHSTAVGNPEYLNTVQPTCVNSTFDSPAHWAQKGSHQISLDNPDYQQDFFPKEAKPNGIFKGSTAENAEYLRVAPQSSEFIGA

SMILES | IC50 (HepG2) | IC50 (MCF7 [1]) | IC50 (PC-3) | IC50 (HCT-116) | IC50 (HeLa) | IC50 [2] | Activity (MCF7 [3]) | Activity (MCF7 [4]) | Activity (MCF7 [5]) | Activity (MCF7 [6]) | Activity (MCF7 [7]) | Activity (MCF7 [8]) | Activity (MCF7 [9]) | Activity (MCF7 [10]) | Activity (MCF7 [11]) | Activity (MCF7 [12])
O=C1CSCC(=O)N1c1nnc2c3ccccc3nc(Sc3ccc(Br)cc3)n12 | 8.43 µM | 9.48 µM | 10.7 µM | 12 µM | 11.8 µM | 4.1 µM | – | – | – | – | – | – | – | – | – | –
COc1cccc2c1C(=O)c1c(O)c3c(c(O)c1C2=O)C[C@@](O)(C(=O)CO)C[C@@H]3O[C@H]1C[C@H](N)[C@H](O)[C@H](C)O1 [DOXORUBICIN] | – | – | – | – | – | – | 67.84% | 9.28% | 19.81% | 3.07% | 32.16% | 32.16% | 22.91% | 48.57% | 32.16% | –
COc1ccc(/C=N/c2nnc3c4ccccc4nc(Cl)n23)cc1O | 49.2 µM | 37.2 µM | 33.5 µM | 31 µM | 29.4 µM | – | – | – | – | – | – | – | – | – | – | –
COc1ccc(/C=N/c2nnc3c4ccccc4nc(Nc4ccc(C)cc4N)n23)cc1O | 9.8 µM | 12.3 µM | 17.7 µM | 8.27 µM | 10.1 µM | 4.28 µM | – | – | – | – | – | – | – | – | – | –
CCN1CCN(CCCNc2ccc(Oc3nc4ccccc4c4nncn34)cc2)CC1 | 11.5 µM | 12.9 µM | 10.6 µM | 13.8 µM | 14.3 µM | 9.51 µM | – | – | – | – | – | – | – | – | – | –
Nc1nc(Nc2nnc3c4ccccc4nc(Sc4ccc(Br)cc4)n23)cs1 | 10.3 µM | 8.9 µM | 10.5 µM | 11.5 µM | 13.4 µM | 0.69 µM | 72.85% | 7.58% | 17.3% | 2.27% | 27.15% | 35.76% | 22.81% | 41.43% | 27.15% | Dose-dependent effect
Nc1nnc2c3ccccc3nc(Sc3ccc(Br)cc3)n12 | 44.9 µM | 57.3 µM | 59.5 µM | 63.5 µM | 45.2 µM | – | – | – | – | – | – | – | – | – | – | –
c1ccc2c(c1)nc(Oc1ccc(NCCCN3CCOCC3)cc1)n1cnnc21 | 46.2 µM | 38.5 µM | 41.6 µM | 39.6 µM | 44.3 µM | – | – | – | – | – | – | – | – | – | – | –
O=C(CCl)Nc1nnc2c3ccccc3nc(Sc3ccc(Br)cc3)n12 | 29.9 µM | 34.4 µM | 37.1 µM | 37.5 µM | 30.4 µM | – | – | – | – | – | – | – | – | – | – | –
Fc1ccc(/C=N/c2nnc3c4ccccc4nc(Cl)n23)cc1 | 31.2 µM | 25.9 µM | 38.5 µM | 18.5 µM | 29.2 µM | – | – | – | – | – | – | – | – | – | – | –
O=C(Nc1nnc2c3ccccc3nc(Sc3ccc(Br)cc3)n12)c1ccccc1 | 32.4 µM | 30.2 µM | 29.9 µM | 44.2 µM | 46.4 µM | – | – | – | – | – | – | – | – | – | – | –
CCN1CCN(CC(=O)Nc2nnc3c4ccccc4nc(Sc4ccc(Br)cc4)n23)CC1 | 11.6 µM | 12.5 µM | 10.7 µM | 15.2 µM | 15.4 µM | 3.91 µM | – | – | – | – | – | – | – | – | – | –
O=[N+]([O-])c1cccc(/C=N/c2nnc3c4ccccc4nc(Cl)n23)c1 | 55.5 µM | 48.2 µM | 60.2 µM | 49.2 µM | 73.4 µM | – | – | – | – | – | – | – | – | – | – | –
CN1CCN(CC(=O)Nc2nnc3c4ccccc4nc(Sc4ccc(Br)cc4)n23)CC1 | 27.2 µM | 24.4 µM | 41.7 µM | 44.9 µM | 35.1 µM | – | – | – | – | – | – | – | – | – | – | –
O=C(Nc1nnc2c3ccccc3nc(Sc3ccc(Br)cc3)n12)c1ccc(Cl)c([N+](=O)[O-])c1 | 18.2 µM | 19.8 µM | 16.8 µM | 20.4 µM | 16.2 µM | – | – | – | – | – | – | – | – | – | – | –
C(=N\c1nnc2c3ccccc3nc(Nc3ccccc3)n12)/c1ccccc1 | 19.2 µM | 20.3 µM | 12.6 µM | 24.8 µM | 22.3 µM | – | – | – | – | – | – | – | – | – | – | –
CN1CCN(CCCNc2ccc(Oc3nc4ccccc4c4nncn34)cc2)CC1 | 16.5 µM | 15.3 µM | 14.3 µM | 17.2 µM | 12.5 µM | – | – | – | – | – | – | – | – | – | – | –
Clc1nc2ccccc2c2nnc(/N=C/c3ccco3)n12 | 15 µM | 9.73 µM | 21.7 µM | 14.8 µM | 18.9 µM | 0.74 µM | 91.44% | 2.92% | 4.22% | 1.42% | 8.56% | 46.72% | 30.19% | 23.09% | 8.56% | Dose-dependent effect
Clc1nc2ccccc2c2nnc(/N=C/C=C/c3ccccc3)n12 | 11.6 µM | 8.34 µM | 16.4 µM | 12.9 µM | 9.16 µM | 7.56 µM | – | – | – | – | – | – | – | – | – | –
c1ccc(N2CCN(CCCNc3ccc(Oc4nc5ccccc5c5nncn45)cc3)CC2)cc1 | 24.2 µM | 30.5 µM | 51.5 µM | 32.5 µM | 23.4 µM | – | – | – | – | – | – | – | – | – | – | –
O=C(CN1CCOCC1)Nc1nnc2c3ccccc3nc(Sc3ccc(Br)cc3)n12 | 50.3 µM | 55.6 µM | 61.5 µM | – | 47.1 µM | – | – | – | – | – | – | – | – | – | – | –
O=[N+]([O-])c1cccc(/C=N/c2nnc3c4ccccc4nc(Nc4ccccc4)n23)c1 | 44.1 µM | 40.4 µM | 35.7 µM | 34.6 µM | 31.4 µM | – | – | – | – | – | – | – | – | – | – | –
C(=N\c1nnc2c3ccccc3nc(Nc3ccccc3)n12)/c1ccco1 | 20.8 µM | 19.7 µM | 43.9 µM | 24.4 µM | 15.5 µM | – | – | – | – | – | – | – | – | – | – | –
Nc1ccc(Oc2nc3ccccc3c3nncn23)cc1 | 26.2 µM | 20.5 µM | 26.7 µM | 27.6 µM | 25.7 µM | – | – | – | – | – | – | – | – | – | – | –
Cc1cccc(Nc2nc3ccccc3c3nnc(/N=C/c4ccc(F)cc4)n23)c1 | 24.2 µM | 18.2 µM | 30.5 µM | 20.4 µM | 26.5 µM | – | – | – | – | – | – | – | – | – | – | –
Clc1nc2ccccc2c2nnc(/N=C/c3ccccc3)n12 | 19.3 µM | 17.1 µM | 27.5 µM | 22.5 µM | 34.7 µM | – | – | – | – | – | – | – | – | – | – | –
N#CC1=C(N)N(c2nnc3c4ccccc4nc(Sc4ccc(Br)cc4)n23)C(=O)C1 | 15.3 µM | 8.58 µM | 10.6 µM | 13.5 µM | 9.47 µM | 1.8 µM | 80.59% | 7.26% | 10.26% | 1.89% | 19.41% | 41.33% | 25.46% | 33.21% | 19.41% | Dose-dependent effect
Nc1cc([N+](=O)[O-])ccc1Nc1nc2ccccc2c2nnc(/N=C/C=C/c3ccccc3)n12 | 13.7 µM | 32.7 µM | 25.2 µM | 11.6 µM | 36.1 µM | – | – | – | – | – | – | – | – | – | – | –
